Patent US9902712B2, “Nitrogenous heterocyclic derivatives and their application in drugs” (Sunshine Lake Pharma Co., Ltd., priority 2013, dated 2018)

Tested on: HFL1 cells
Test: HFL1 cell proliferation inhibition (CCK-8, optical density at 450 nm)
Type: cell-based
Details: for IC50: Homo sapiens, 48 hours after dosing, CCK-8, cell proliferation inhibition; for The ratio with PFD: IC50 ratio of Pirfenidone to the compound, 48 hours
Experimental: Example 69: Cell Experiment Method
HFL1 cells in exponential growth phase were cultured, cells were digested and collected using traditional subculturing when reaching 85-95% fusion and the cells were counted to adjust, the cell density to 5×10^4 cells per milliliter, then the cells were seed into 96-well plates, 100 μl/well and incubated in a 5% CO2 incubator at 37° C.
The supernatant of the 96-well plates was removed at 24 hours after the cells adhering to the wall and solutions containing the above compounds with different concentration were added to the wells, with 100 μl/well (the concentration of each compounds are in the range of 0.003-8 mmol/L) each concentration in 3 replicates, and the cells were cultured 48 hours after dosing.
3. Testing the Optical Density
10 μl of CCK-8 solution was added to each well 48 hours after dosing, and incubated for 2 hours. The optical density (A) of each well was determined using a microplate reader at 450 nm wavelength. The cell proliferation inhibition ratio of each compound were calculated based on A using the formula of: cell proliferation inhibition ratio(inhibition ratio, IR)=(1−value of experimental group (Ai)/value of control group (Ao))×100%, in which IC50 of each compound at 48 hours was calculated by data processing software, wherein the control group was the blank group.

Cc1cc(=O)n(-c2ccc(N3CCC(Cc4cccc(C(F)(F)F)c4)CC3)c(Cl)c2)c(C)n1 [Example 14, 3-(3-chloro-4-(4-(3-(trifluoromethyl)benzyl)piperidin-1-yl)phenyl)-2,6-dimethylpyrimidin-4(3H)-one]
IC50: 60 µM | The ratio with PFD: 139 multiple

Cc1cc(=O)n(-c2ccc(N3CCC(Cc4cccc(Cl)c4)CC3)c(Cl)c2)c(C)n1 [Example 19, 3-(3-chloro-4-(4-(3-chlorobenzyl)piperidin-1-yl)phenyl)-2,6-dimethylpyrimidin-4(3H)-one]
IC50: 70 µM | The ratio with PFD: 137 multiple

Cc1cc(=O)n(-c2ccc(N3CCC(COc4cccc(F)c4)CC3)c(Cl)c2)c(C)n1 [Example 30, 3-(3-chloro-4-(4-((3-fluorophenoxy)methyl)piperidin-1-yl)phenyl)-2,6-dimethylpyrimidin-4(3H)-one]
IC50: 60 µM | The ratio with PFD: 136 multiple

Cc1cc(=O)n(-c2ccc(N3CCC(Cc4ccc(C(F)(F)F)c5cccnc45)CC3)c(Cl)c2)c(C)n1 [Example 56, 3-(3-chloro-4-(4-((5-(trifluoromethyl)quinolin-8-yl)methyl)piperidin-1-yl)phenyl)-2,6-dimethylpyrimidin-4(3H)-one]
IC50: 40 µM | The ratio with PFD: 209 multiple

Cc1cc(=O)n(-c2ccc(N3CCC(Cc4ccccc4-c4ccccc4)CC3)c(Cl)c2)c(C)n1 [Example 13, 3-(4-(4-([1,1′-biphenyl]-2-ylmethyl)piperidin-1-yl)-3-chlorophenyl)-2,6-dimethylpyrimidin-4(3H)-one]
IC50: 70 µM | The ratio with PFD: 118 multiple

Cc1cc(=O)n(-c2ccc(N3CCC(COc4cccc(C(F)(F)F)c4)CC3)c(Cl)c2)c(C)n1 [Example 53, 3-(3-chloro-4-(4-((3-(trifluoromethyl)phenoxy)methyl)piperidin-1-yl)phenyl)-2,6-dimethylpyrimidin-4(3H)-one]
IC50: 38 µM | The ratio with PFD: 602 multiple

Cc1cc(=O)n(-c2ccc(N3CCC(Cc4cccc5ccccc45)CC3)c(F)c2)c(C)n1 [Example 26, 3-(3-fluoro-4-(4-(naphthalen-1-ylmethyl)piperidin-1-yl)phenyl)-2,6-dimethylpyrimidin-4(3H)-one]
IC50: 60 µM | The ratio with PFD: 137 multiple

Cc1cc(=O)n(-c2ccc(N3CCC(Cc4ccc(Cl)c(F)c4)CC3)c(Cl)c2)c(C)n1 [Example 16, 3-(3-chloro-4-(4-(4-chloro-3-fluorobenzyl)piperidin-1-yl)phenyl)-2,6-dimethylpyrimidin-4(3H)-one]
IC50: 70 µM | The ratio with PFD: 139 multiple

Cc1ccc(OC2CCN(c3ccc(-n4c(C)nc(C)cc4=O)cc3Cl)CC2)c(Cl)c1 [Example 37, 3-(3-chloro-4-(4-(2-chloro-4-methylphenoxy)piperidin-1-yl)phenyl)-2,6-dimethylpyrimidin-4(3H)-one]
IC50: 80 µM | The ratio with PFD: 181 multiple

C=CCc1ccccc1OC1CCN(c2ccc(-n3c(C)nc(C)cc3=O)cc2Cl)CC1 [Example 33, 3-(4-(4-(2-allylphenoxy)piperidin-1-yl)-3-chlorophenyl)-2,6-dimethylpyrimidin-4(3H)-one]
IC50: 70 µM | The ratio with PFD: 149 multiple

Cc1cc(=O)n(-c2ccc(N3CCC(Cc4ccc5cc(F)ccc5c4)CC3)c(Cl)c2)c(C)n1 [Example 51, 3-(3-chloro-4-(4-((6-fluoronaphthalen-2-yl)methyl)piperidin-1-yl)phenyl)-2,6-dimethylpyrimidin-4(3H)-one]
IC50: 37 µM | The ratio with PFD: 618 multiple

Cc1cc(=O)n(-c2ccc(N3CCC(Cc4ccccc4Cl)CC3)c(Cl)c2)c(C)n1 [Example 15, 3-(3-chloro-4-(4-(2-chlorobenzyl)piperidin-1-yl)phenyl)-2,6-dimethylpyrimidin-4(3H)-one]
IC50: 65 µM | The ratio with PFD: 151 multiple

Cc1cc(=O)n(-c2ccc(N3CCC(Oc4cccc(C#N)c4)CC3)c(Cl)c2)c(C)n1 [Example 29, 3-((1-(2-chloro-4-(2,4-dimethyl-6-oxopyrimidin-1 (6H)-yl)phenyl)piperidin-4-yl)oxy)benzonitrile]
IC50: 90 µM | The ratio with PFD: 107 multiple

Cc1cc(=O)n(-c2ccc(N3CCC(Cc4cccc5cccnc45)CC3)c(Cl)c2)c(C)n1 [Example 22, 3-(3-chloro-4-(4-(quinolin-8-ylmethyl)piperidin-1-yl)phenyl)-2,6-dimethylpyrimidin-4(3H)-one]
IC50: 90 µM | The ratio with PFD: 101 multiple

Cc1cc(=O)n(-c2ccc(N3CCC(OCc4cccc(F)c4)CC3)c(Cl)c2)c(C)n1 [Example 32, 3-(3-chloro-4-(4-((3-fluorobenzyl)oxy)piperidin-1-yl)phenyl)-2,6-dimethylpyrimidin-4(3H)-one]
IC50: 100 µM | The ratio with PFD: 107 multiple

Cc1cc(=O)n(-c2ccc(N3CCC(Cc4ccc(F)c(F)c4)CC3)c(Cl)c2)c(C)n1 [Example 44, 3-(3-chloro-4-(4-(3,4-difluorobenzyl)piperidin-1-yl)phenyl)-2,6-dimethylpyrimidin-4(3H)-one]
IC50: 70 µM | The ratio with PFD: 139 multiple

Cc1cc(=O)n(-c2ccc(N3CCC(Cc4ccc(F)cc4)CC3)c(F)c2)c(C)n1 [Example 25, 3-(3-fluoro-4-(4-(4-fluorobenzyl)piperidin-1-yl)phenyl)-2,6-dimethylpyrimidin-4(3H)-one]
IC50: 100 µM | The ratio with PFD: 107 multiple

Cc1cc(=O)n(-c2ccc(N3CCC(Oc4cccc(N)c4)CC3)c(Cl)c2)c(C)n1 [Example 34, 3-(4-(4-(3-aminophenoxy)piperidin-1-yl)-3-chlorophenyl)-2,6-dimethylpyrimidin-4(3H)-one]
IC50: 90 µM | The ratio with PFD: 154 multiple

Cc1cc(=O)n(-c2ccc(N3CCC(Cc4cc(F)cc5cccnc45)CC3)c(Cl)c2)c(C)n1 [Example 54, 3-(3-chloro-4-(4-((6-fluoroquinolin-8-yl)methyl)piperidin-1-yl)phenyl)-2,6-dimethylpyrimidin-4(3H)-one]
IC50: 40 µM | The ratio with PFD: 209 multiple

COc1cccc(CC2CCN(c3ccc(-n4c(C)nc(C)cc4=O)cc3Cl)CC2)c1 [Example 12, 3-(3-chloro-4-(4-(3-methoxybenzyl)piperidin-1-yl)phenyl)-2,6-dimethylpyrimidin-4(3H)-one]
IC50: 80 µM | The ratio with PFD: 112 multiple

Cc1cc(=O)n(-c2ccc(N3CCC(Cc4ccc5ccccc5c4)CC3)c(Cl)c2)c(C)n1 [Example 10, 3-(3-chloro-4-(4-(naphthalen-2-ylmethyl)piperidin-1-yl)phenyl)-2,6-dimethylpyrimidin-4(3H)-one]
IC50: 78 µM | The ratio with PFD: 111 multiple

Cc1cc(=O)n(-c2ccc(N3CCC(Oc4ccccc4OC(F)(F)F)CC3)c(Cl)c2)c(C)n1 [Example 35, 3-(3-chloro-4-(4-(2-(trifluoromethoxy)phenoxy)piperidin-1-yl)phenyl)-2,6-dimethylpyrimidin-4(3H)-one]
IC50: 120 µM | The ratio with PFD: 119 multiple

Cc1cc(=O)n(-c2ccc(N3CCC(Cc4cccc5ccccc45)CC3)c(Cl)c2)c(C)n1 [Example 9, 3-(3-chloro-4-(4-(naphthalen-1-ylmethyl)piperidin-1-yl)phenyl)-2,6-dimethylpyrimidin-4(3H)-one]
IC50: 80 µM | The ratio with PFD: 179 multiple

Cc1cc(=O)n(-c2ccc(N3CCC(Cc4cc(F)c(F)c5cccnc45)CC3)c(Cl)c2)c(C)n1 [Example 57, 3-(3-chloro-4-(4-((5,6-difluoroquinolin-8-yl)methyl)piperidin-1-yl)phenyl)-2,6-dimethylpyrimidin-4(3H)-one]
IC50: 60 µM | The ratio with PFD: 168 multiple

Cc1cc(=O)n(-c2ccc(N3CCC(Cc4cc(F)c(F)c(F)c4)CC3)c(Cl)c2)c(C)n1 [Example 17, 3-(3-chloro-4-(4-(3,4,5-trifluorobenzyl)piperidin-1-yl)phenyl)-2,6-dimethylpyrimidin-4(3H)-one]
IC50: 70 µM | The ratio with PFD: 137 multiple

Cc1cc(=O)n(-c2ccc(N3CCC(Cc4ccc(F)c5ccccc45)CC3)c(Cl)c2)c(C)n1 [Example 58, 3-(3-chloro-4-(4-((4-fluoronaphthalen-1-yl)methyl)piperidin-1-yl)phenyl)-2,6-dimethylpyrimidin-4(3H)-one]
IC50: 64 µM | The ratio with PFD: 357 multiple

Cc1cc(=O)n(-c2ccc(N3CCC(Cc4ccccc4F)CC3)c(Cl)c2)c(C)n1 [Example 6, 3-(3-chloro-4-(4-(2-fluorobenzyl)piperidin-1-yl)phenyl)-2,6-dimethylpyrimidin-4(3H)-one]
IC50: 70 µM | The ratio with PFD: 121 multiple
